These results are taken from publication PMC8533752, “Characterization of Microtubule Destabilizing Drugs: A Quantitative Cell-Based Assay That Bridges the Gap between Tubulin Based- and Cytotoxicity Assays” (Cancers, 2021).

One test has as its target porcine tubulin (Sus scrofa, UniProt P02550+P02554). Briefly: biochemical. On the procedure:
Tubulin polymerization kit ((#BK004) was purchased from Cytoskeleton, Inc. (Denver, CO, USA). To study the effect of the compounds on MT assembly, the absorbance-based in vitro tubulin polymerization assay was performed following the manufacturer’s protocol. The reaction mixture containing porcine tubulin (40 µM) in G-PEM buffer (80 mM PIPES pH 6.9, 2.0 mM MgCl2, 0.5 mM EGTA, and 5% glycerol) supplemented with 1.0 mM GTP, in the presence of DMSO (0.18%) or the compound to be tested, was prepared and added to each well of a 96-well plate (half area, #675096, Greiner Bio One, Courtaboeuf, France). Tubulin polymerization was monitored by the increase in absorbance over time, measured by a CLARIOstar^plus Microplate reader from BMG Lab technology (Champagny-sur-Marne, France).

Test [1] has as its system cellular microtubules in HeLa cells. Briefly: Quantitative immunoluminescent assay of the cellular microtubule content. In kind it is cell-based. The settings on record: Homo sapiens, 0.5 h, 30 min incubation, mean ± SEM, read-out: IC50, drug concentration able to reduce the amount of cellular microtubules by half. On the procedure:
7500 HeLa cells were seeded in 96-well microplates (#655086, Greiner bio One, Courtaboeuf, France) in 100 µL of complete medium per well and then incubated at 37 °C in 5% CO2 for 24 h. Cells were then treated for 30 min at 37 °C with the compounds at concentrations ranging from 1 to 5000 nM (1 microplate per molecule, 1 concentration per column), with 0.1% DMSO used as […] control (6 wells per microplate). After medium aspiration, treated cells were permeabilized for 10 min using 100 µL per well of warmed (37 °C) OPT buffer (80 mM Pipes, 1 mM EGTA, 1 mM MgCl2, 0.5% Triton X-100, and 10% glycerol, pH 6.8). Cells were fixed overnight at room temperature using 100 µL per well of 4% formaldehyde (Sigma Aldrich, #252549, Saint-Quentin-Fallavier, France) in PBS. Cells were washed 3 times in PBS, 0.1% Tween-20 (100 µL per well), then primary anti-alpha-tubulin antibody (clone α3A1 [40], 1:5000 in PBS 2% Bovine Serum Albumin (BSA)) was added for 45 min. Cells were washed twice again and secondary anti-mouse antibody coupled to HRP (1:2000 in PBS 2% BSA, #715-035-150, Jackson Immuno-Research Laboratories, Cambridgeshire, UK) was added for 45 min. Then, cells were washed again with PBS and 100 µL of ECL substrate (#170-5061, Bio-Rad Laboratories inc., USA) were injected in each well using the FLUOstar OPTIMA Microplate Reader (BMG Lab technology, Champagny-sur-Marne, France). The luminescent signal was read immediately after ECL injection.

The subject of the next test is HeLa cells microtubules. Kind of test: Immunofluorescence analysis of HeLa cells microtubules. In kind it is cell-based, Human. The settings on record: 50 nM, 30 min. As for the experimental part: (§1) Cells at a density of 20,000 cells per well were grown for 48 h on glass coverslips placed in a 24-well microplate. When cells reached 70% confluence, the medium was replaced with a fresh one supplemented with DMSO (0.005% or 0.01%) or the test compound at 50 nM or 1000 nM. After 30 min of incubation, cells were permeabilized in warm OPT buffer (80 mmol/L Pipes, […], 0.5% Triton X-100 and 10% Glycerol, pH 6.8) and fixed for 6 min in −20 °C methanol (Carlo ERBA SAS, #414855, Val-de-Reuil, France). After washing and saturation with a specific blocking buffer (3% BSA), 10% Goat serum (Gibco Invitrogen, #16210064, Carlsbad, CA, USA) in PBS), cells were incubated for 45 min at room temperature (RT) with anti-alpha-tubulin antibody (clone α3A1 [40] in blocking buffer). Cells were washed twice again and subsequently incubated with Alexa 488 conjugated anti-mouse antibody (1:500 in blocking buffer, #115-545-166, Jackson immune-research laboratory, Cambridgeshire, UK) and DNA was stained with Hoechst 33342 (1:10,000 in blocking buffer) for 30 min at RT. Coverslips were mounted on glass slides with Moviol 4–88.
(§2) Images were captured with a Zeiss AxioimagerM2 microscope equipped with the acquisition software AxioVision (Marly-le-Roi, France).

A further test has as its system HeLa cells. Briefly: Cell viability, PrestoBlue assay, HeLa. The format is cell-based. Particulars: Homo sapiens, 48 h, mean ± SEM, read-out: GI50 (concentration causing 50% cell growth inhibition). On the procedure:
(§3) Cell viability was analyzed using the colorimetric PrestoBlue assay (Gibco Invitrogen, #A13262, Carlsbad, CA, USA). Cells were seeded in 96-well microplates (#655077, Greiner, Courtaboeuf, France) at density of 2500 cells per well and allowed to adhere for 24 h before being treated for 48 h with the drugs at indicated concentrations or corresponding concentrations of DMSO as controls, in a final volume of 90 µL. After 48 h of treatment, 10 µL PrestoBlue was added to each well and cells were incubated for another 45 min. The absorbance of each well was measured using a FLUOstar microplate reader (Excitation: 544 nm; Emission: 580 nm, BMG Lab technology, Champagny/Marne, France).

The next test has as its system RPE-1 cells. Kind of test: Cell viability, PrestoBlue assay, RPE-1. The format is cell-based. The settings on record: Homo sapiens, 48 h, mean ± SEM, read-out: GI50 (concentration causing 50% cell growth inhibition). On the procedure: as §3
The subject of the next test is RPE1 cell microtubules. Kind of test: Immunofluorescence analysis of RPE1 cell microtubules. The format is cell-based, human. Particulars: RPE1 cells, 50 nM, 30 min. As for the experimental part:
as §1, §2

Another test deals with tubulin. On the set-up: method as in PMID 32781579. Particulars: cited from earlier work.
The test system of test [2] is microtubular network of interphase cells. On the set-up: method as in PMID 32781579. Particulars: cited from earlier work.

Chain of porcine tubulin (P02554 whole entry): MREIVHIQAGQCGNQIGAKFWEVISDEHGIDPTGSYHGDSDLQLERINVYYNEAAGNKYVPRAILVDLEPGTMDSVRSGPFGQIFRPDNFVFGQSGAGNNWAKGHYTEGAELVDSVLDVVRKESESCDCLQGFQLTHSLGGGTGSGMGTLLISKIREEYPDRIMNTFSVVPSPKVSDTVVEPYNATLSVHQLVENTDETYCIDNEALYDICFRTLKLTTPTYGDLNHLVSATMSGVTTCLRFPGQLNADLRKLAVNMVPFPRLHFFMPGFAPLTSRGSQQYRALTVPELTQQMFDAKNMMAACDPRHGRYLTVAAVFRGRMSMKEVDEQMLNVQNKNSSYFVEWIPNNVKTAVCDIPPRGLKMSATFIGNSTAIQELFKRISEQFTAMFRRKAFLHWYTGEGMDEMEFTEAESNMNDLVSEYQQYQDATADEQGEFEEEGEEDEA
Chain of porcine tubulin (P02550 whole entry): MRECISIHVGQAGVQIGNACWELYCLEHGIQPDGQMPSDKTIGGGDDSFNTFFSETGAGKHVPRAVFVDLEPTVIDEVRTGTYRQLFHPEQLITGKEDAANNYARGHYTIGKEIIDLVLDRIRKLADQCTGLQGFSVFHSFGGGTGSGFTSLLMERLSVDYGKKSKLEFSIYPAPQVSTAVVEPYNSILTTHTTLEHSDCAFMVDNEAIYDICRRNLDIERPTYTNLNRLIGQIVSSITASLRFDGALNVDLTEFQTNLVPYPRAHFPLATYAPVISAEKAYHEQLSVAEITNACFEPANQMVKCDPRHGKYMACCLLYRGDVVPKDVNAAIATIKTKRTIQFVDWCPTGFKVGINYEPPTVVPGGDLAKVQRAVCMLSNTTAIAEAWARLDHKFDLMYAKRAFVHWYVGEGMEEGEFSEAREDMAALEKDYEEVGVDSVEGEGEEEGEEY

Regarding `COC(=O)Nc1nc2ccc(C(=O)c3cccs3)cc2[nH]1` [nocodazole], the values for the IC50 (on porcine tubulin; in test [1]) were ~5000 nM and 350 ± 76.4 nM, respectively. The “concentration giving almost complete depolymerization / inhibition of tubulin assembly” value at porcine tubulin (tubulin 40 µM) is given as ≥ 40 µM. Also, the “state of the MT network by immunofluorescence” value (shortened to “state of the MT network”) in the test with HeLa cells microtubules is listed as “a MT network is still present”. In addition, the GI50 in the test on HeLa cells worked out at 49.3 ± 2.6 nM; with RPE-1 cells it was 81.7 ± 4.41 nM.

Consider `CC[C@]1(O)C[C@@H]2CN(CCc3c([nH]c4ccccc34)[C@@](C(=O)OC)(c3cc4c(cc3OC)N(C)[C@H]3[C@@](O)(C(=O)OC)[C@H](OC(C)=O)[C@]5(CC)C=CCN6CC[C@]43[C@@H]65)C2)C1` [vinblastine], for which the IC50 on porcine tubulin was ~1000 nM; in test [1], 4.83 ± 0.17 nM. In addition, the “state of the MT network” value in the test on HeLa cells microtubules is “only few MTs remain”. Further, the “effect on cell microtubules by immunofluorescence” value in the test with RPE1 cell microtubules is reported as “depolymerized cell microtubules”. In addition, the GI50 came out at 0.73 ± 0.02 nM with HeLa cells and 0.7 ± 0.77 nM in the test on RPE-1 cells.

Consider `COc1cc2c(c(OC)c1OC)-c1ccc(OC)c(=O)cc1[C@@H](NC(C)=O)CC2` [colchicine], for which, in the test on HeLa cells microtubules, the “state of the MT network” value is on record as “a MT network is still present”.

On to `Cc1cc(-n2cccc2)c(C)c2c1[nH]c1ccc(Cl)cc12` [Carba1], for which the “effect on tubulin assembly kinetics” value in the test with tubulin is on record as “visible depolymerizing effect”. In addition, the “effect on the microtubular network of interphase cells” value in test [2] is on record as “no detectable effect”.

As to `COc1ccc(/C=C\c2cc(OC)c(OC)c(OC)c2)cc1O` [C-A4, combretastatin-A4], the IC50 in test [1] was 4.5 ± 0.76 nM. Further, the “state of the MT network” value in the test with HeLa cells microtubules was “only few MTs remain”. In the test on RPE1 cell microtubules, the “effect on cell microtubules by immunofluorescence” value is on record as “depolymerized cell microtubules”. For the same molecule, the GI50 turned out to be 0.93 ± 0.07 nM with HeLa cells and 4.16 ± 1.42 nM in the test on RPE-1 cells.
